Laboratory results reported in ChEMBL document CHEMBL1157633, “Prediction and evaluation of protein farnesyltransferase inhibition by commercial drugs” (J Med Chem, 2010).
Calls of active or inactive are those of the source. The rule behind the calls is not given here.

Key:
[1] = Blockade of protein farnesyltransferase by aggregate-based inhibition assay
[2] = Blockade of protein farnesyltransferase at 100 uM by aggregate-based inhibition assay
[3] = Inhibition of protein farnesyltransferase by continuous fluorescence assay
MDCK [4] = experiment: Inhibition of protein farnesyltransferase-mediated farnesylation of GFP-tagged H-Ras protein overexpressed in MDCK cells assessed as inhibition of protein localization into golgi and plasma membrane at 25 uM after 24 hrs by Hoechst 34580 staining-based confocal microscopy; format: cell-based
MDCK [5] = experiment: Cytotoxicity against MDCK cells at >10 uM; format: cell-based, Canis lupus familiaris; conditions: dog
MDCK [6] = experiment: Inhibition of protein farnesyltransferase-mediated farnesylation of GFP-tagged H-Ras protein overexpressed in MDCK cells assessed as inhibition of protein localization into golgi and plasma membrane at 10 uM after 48 hrs by Hoechst 34580 staining-based confocal microscopy; format: cell-based

Question: For Clc1ccc(COC(Cn2ccnc2)c2ccc(Cl)cc2Cl)cc1 (stereo not given), which Activity [1] is on record?
Answer: Its Activity is “Active”.

Question: For Clc1ccccc1C(c1ccccc1)(c1ccccc1)n1ccnc1, which Activity [2] is on record?
Answer: Its Activity is “inactive”.

Question: With O=C1OC(c2ccc(O)cc2)(c2ccc(O)cc2)c2c(I)c(I)c(I)c(I)c21 as the compound, how does the Activity [1] read?
Answer: Its Activity is “inactive”.

Question: Which results are given for CCOC(=O)N1CCC(=C2c3ccc(Cl)cc3CCc3cccnc32)CC1 [LORATADINE]?
Answer: IC50 [3]: 13.3 µM; Activity (MDCK [4]): inactive

Question: For Clc1ccc(COC(Cn2ccnc2)c2ccc(Cl)cc2Cl)c(Cl)c1 (stereo not given) [MICONAZOLE], which Activity [1] is on record?
Answer: Its Activity is “Active”.

Question: And the Activity (MDCK [5])?
Answer: Its Activity is “Toxic”.

Question: What about the Activity (MDCK [6]) of the same compound?
Answer: The Activity was “Active”.

Question: For Cc1cncc(CN2CCC(=C3c4ccc(Cl)cc4CCc4cccnc43)CC2)c1 [RUPATADINE], which IC50 [3] is on record?
Answer: The IC50 was 76 µM.

Question: Which IC50 [3] does the source give for CC(C)C[C@H](NC(=O)[C@@H](O)[C@H](N)Cc1ccccc1)C(=O)O [UBENIMEX] here?
Answer: The IC50 was over 200 µM.
